Experimental data reported in patent publication US20080234288A1, “Hcv Inhibiting Sulfonamides” (priority 2003, published 2008).
Structures can show the parent of a compound that is named as a salt.

What follows are compounds tested on HCV replicon (NS3-NS5B regions of HCV type 1b) in Huh-7 luc/neo cells (assay: HCV replicon assay, stable replicon cell reporter assay (Huh-Luc, luciferase)). Settings: Hepatitis C virus, Huh-7, 72 h, incubation of three days, luciferase activity.
Format: cell-based
From the text: The compounds of the present invention were examined for activity in the inhibition of HCV RNA replication in a cellular assay. […] The cellular assay was based on a bicistronic expression construct, as described by Lohmann et al. (1999) Science vol. 285 pp. 110-113 with modifications described by Krieger et al. (2001) Journal of Virology 75: 4614-4624, in a multi-target screening strategy. In essence, the method is as follows.
The assay utilized the stably transfected cell line Huh-7 luc/neo (hereafter referred to as Huh-Luc; kindly provided by Dr Ralf Bartenschlager, Reblikon GmBh, Germany). This cell line harbors an RNA encoding a bicistronic expression construct comprising the wild type NS3-NS5B regions of HCV type 1b translated from an Internal Ribosome Entry Site (IRES) from encephalomyocarditis virus (EMCV), preceded by a reporter portion (FfL-luciferase), and a selectable marker portion (neo^R, neomycine phosphotransferase). The construct was bordered by 5′ and 3′ NTRs (non-translated regions) from HCV type 1b. Continued culture of the replicon cells in the presence of G418 (neo^R) is dependent on the replication of the HCV RNA. The stably transfected replicon cells that express HCV RNA, which replicates autonomously and to high levels, encoding inter alia luciferase, were used for screening the antiviral compounds.
The replicon cells were plated in 384 well plates in the presence of the test and control compounds which were added in various concentrations. Following an incubation of three days, HCV replication was measured by assaying luciferase activity (using standard luciferase assay substrates and reagents and a Perkin Elmer ViewLux™ ultraHTS microplate imager). Replicon cells in the control cultures have high luciferase expression in the absence of any inhibitor. The inhibitory activity of the compound on luciferase activity was monitored on the Huh-Luc cells, enabling a dose-response curve for each test compound. EC50 values were then calculated, which value represents the amount of the compound required to decrease by 50% the level of detected luciferase activity, or more specifically, the ability of the genetically linked HCV replicon RNA to replicate (Table 1).

`CC(C)CN(CC(O)C(Cc1ccccc1)NC(=O)OCc1cncs1)S(=O)(=O)c1ccc2nc(NC(=O)c3ccoc3)oc2c1` (stereo not drawn) [Compound 25, [1-Benzyl-3-({2-[(furan-3-carbonyl)-amino]-benzooxazole-6-sulfonyl}-isobutyl-amino)-2-hydroxy-propyl]-carbamic acid thiazol-5-ylmethyl ester] and `CC(C)CN(CC(O)C(Cc1ccccc1)NC(=O)OCc1cncs1)S(=O)(=O)c1ccc2nc(NC(=O)c3ccncc3)oc2c1` (stereo not drawn) [Compound 35, [1-Benzyl-2-hydroxy-3-(isobutyl-{2-[(pyridine-4-carbonyl)-amino]-benzooxazole-6-sulfonyl}-amino)-propyl]-carbamic acid thiazol-5-ylmethyl ester] cannot be ordered by EC50: under 2 µM for the first, under 2 µM for the second.

`CC(C)CN(CC(O)C(Cc1ccccc1)NC(=O)OCc1cncs1)S(=O)(=O)c1ccc2nc(NC(=O)C3CCN(C)CC3)oc2c1` (stereo not drawn) [Compound 26, [1-Benzyl-2-hydroxy-3-(isobutyl-{2-[(1-methyl-piperidine-4-carbonyl)-amino]-benzooxazole-6-sulfonyl}-amino)-propyl]-carbamic acid thiazol-5-ylmethyl ester] and `CC(C)CN(CC(O)C(Cc1ccccc1)NC(=O)OCc1cncs1)S(=O)(=O)c1ccc2nc(N(C)C(=O)C3CCN(C)CC3)oc2c1` (stereo not drawn) [Compound 38, [1-Benzyl-2-hydroxy-3-(isobutyl-{2-[methyl-(1-methyl-piperidine-4-carbonyl)-amino]-benzooxazole-6-sulfonyl}-amino)-propyl]-carbamic acid thiazol-5-ylmethyl ester] fall in the same range of EC50: 10 to 32 µM for the first, 10 to 32 µM for the second.

First: CC(C)CN(CC(O)C(Cc1ccccc1)NC(=O)OCc1cncs1)S(=O)(=O)c1ccc2nc(NC(=O)c3ccccn3)oc2c1 (stereo not drawn) [Compound 27, [1-Benzyl-2-hydroxy-3-(isobutyl-{2-[(pyridine-2-carbonyl)-amino]-benzooxazole-6-sulfonyl}-amino)-propyl]-carbamic acid thiazol-5-ylmethyl ester]
Second: CC(C)CN(CC(O)C(Cc1ccccc1)NC(=O)OCc1cncs1)S(=O)(=O)c1ccc2nc(N(C)C(=O)c3ccccn3)oc2c1 (stereo not drawn) [Compound 36, [1-Benzyl-2-hydroxy-3-(isobutyl-{2-[methyl-(pyridine-2-carbonyl)-amino]-benzooxazole-6-sulfonyl}-amino)-propyl]-carbamic acid thiazol-5-ylmethyl ester]
The EC50 of the first is lower: 2 to 10 µM for the first, 10 to 32 µM for the second. The first is the more potent here.

`CC(C)CN(CC(O)C(Cc1ccccc1)NC(=O)OCc1cnc(Cl)s1)S(=O)(=O)c1ccc2nc(N)oc2c1` (stereo not drawn) [Compound 28, {3-[(2-Amino-benzooxazole-6-sulfonyl)-isobutyl-amino]-1-benzyl-2-hydroxy-propyl}-carbamic acid 2-chloro-thiazol-5-ylmethyl ester] and `CC(C)CN(CC(O)C(Cc1ccccc1)NC(=O)OCc1cncs1)S(=O)(=O)c1ccc2nc(N)oc2c1` (stereo not drawn) [Compound 45, {3-[(2-Amino-benzooxazole-6-sulfonyl)-isobutyl-amino]-1-benzyl-2-hydroxy-propyl}-carbamic acid thiazol-5-ylmethyl ester] fall in the same range of EC50: 2 to 10 µM for the first, 2 to 10 µM for the second.

Compared with `CC(C)CN(CC(O)C(Cc1ccccc1)NC(=O)OCc1cncs1)S(=O)(=O)c1ccc2nc(NC(=O)CN(C)C)oc2c1` (stereo not drawn) [Compound 29, (1-Benzyl-3-{[2-(2-dimethylamino-acetylamino)-benzo-oxazole-6-sulfonyl]-isobutyl-amino}-2-hydroxy-propyl)-carbamic acid thiazol-5-ylmethyl ester], `CC(C)CN(CC(O)C(Cc1ccccc1)NC(=O)OCc1cncs1)S(=O)(=O)c1ccc2nc(N(C)C)oc2c1` (stereo not drawn) [Compound 33, {1-Benzyl-3-[(2-dimethylamino-benzooxazole-6-sulfonyl)-isobutyl-amino]-2-hydroxy-propyl}-carbamic acid thiazol-5-ylmethyl ester] is higher in EC50: 2 to 10 µM for the first, 10 to 32 µM for the second.

`CC(C)CN(CC(O)C(Cc1ccccc1)NC(=O)OCc1cncs1)S(=O)(=O)c1ccc2nc(N3CCNCC3)oc2c1` (stereo not drawn) [Compound 30, {1-Benzyl-2-hydroxy-3-[isobutyl-(2-piperazin-1-yl-benzo-oxazole-6-sulfonyl)-amino]-propyl}-carbamic acid thiazol-5-ylmethyl ester] and `CC(C)CN(CC(O)C(Cc1ccccc1)NC(=O)OCc1cncs1)S(=O)(=O)c1ccc2nc(N3CCCCC3)oc2c1` (stereo not drawn) [Compound 31, {1-Benzyl-2-hydroxy-3-[isobutyl-(2-piperidin-1-yl-benzo-oxazole-6-sulfonyl)-amino]-propyl}-carbamic acid thiazol-5-ylmethyl ester] fall in the same range of EC50: 2 to 10 µM for the first, 2 to 10 µM for the second.

`CC(C)CN(CC(O)C(Cc1ccccc1)NC(=O)OCc1cncs1)S(=O)(=O)c1ccc2nc(NC(=O)CN(C)CCN3CCCC3)oc2c1` (stereo not drawn) [Compound 32, {1-Benzyl-2-hydroxy-3-[isobutyl-(2-{2-[methyl-(2-pyrrolidin-1-yl-ethyl)-amino]-acetylamino}-benzooxazole-6-sulfonyl)-amino]-propyl}-carbamic acid thiazol-5-ylmethyl ester] and `CC(C)CN(CC(O)C(Cc1ccccc1)NC(=O)OCc1cncs1)S(=O)(=O)c1ccc2nc(N(C)C(=O)C3CCCN(C)C3)oc2c1` (stereo not drawn) [Compound 37, [1-Benzyl-2-hydroxy-3-(isobutyl-{2-[methyl-(1-methyl-piperidine-3-carbonyl)-amino]-benzooxazole-6-sulfonyl}-amino)-propyl]-carbamic acid thiazol-5-ylmethyl ester] fall in the same range of EC50: 10 to 32 µM for the first, 10 to 32 µM for the second.

`CC(C)CN(CC(O)C(Cc1ccccc1)NC(=O)OCc1cnco1)S(=O)(=O)c1ccc2nc(N)oc2c1` (stereo not drawn) [Compound 34, {3-[(2-Amino-benzooxazole-6-sulfonyl)-isobutyl-amino]-1-benzyl-2-hydroxy-propyl}-carbamic acid oxazol-5-ylmethyl ester] and `CC(C)CN(CC(O)C(Cc1ccccc1)NC(=O)OCc1cncs1)S(=O)(=O)c1ccc2nc(N(C)C(=O)C3CCCN3C)oc2c1` (stereo not drawn) [Compound 40, [1-Benzyl-2-hydroxy-3-(isobutyl-{2-[methyl-(1-methyl-pyrrolidine-2-carbonyl)-amino]-benzooxazole-6-sulfonyl}-amino)-propyl]-carbamic acid thiazol-5-ylmethyl ester trifluoroacetate salt] fall in the same range of EC50: 10 to 32 µM for the first, 10 to 32 µM for the second.

First: CC(C)CN(CC(O)C(Cc1ccccc1)NC(=O)OCc1cncs1)S(=O)(=O)c1ccc2nc(N(C)C(=O)c3ccnc(Cl)c3)oc2c1 (stereo not drawn) [Compound 39, [1-Benzyl-3-({2-[(2-chloro-pyridine-4-carbonyl)-methyl-amino]-benzooxazole-6-sulfonyl}-isobutyl-amino)-2-hydroxy-propyl]-carbamic acid thiazol-5-ylmethyl ester]
Second: CC(C)CN(CC(O)C(Cc1ccccc1)NC(=O)OCc1cncs1)S(=O)(=O)c1ccc2ncn(CC(C)C)c2c1 (stereo not drawn) [Compound 42, {1-Benzyl-2-hydroxy-3-[isobutyl-(3-isobutyl-3H-benzo-imidazole-5-sulfonyl)-amino]-propyl}-carbamic acid thiazol-5-ylmethyl ester]
The EC50 of the first is higher: 10 to 32 µM for the first, 2 to 10 µM for the second.

`CC(C)CN(CC(O)C(Cc1ccccc1)NC(=O)OCc1cncs1)S(=O)(=O)c1ccc2ncn(CCc3ccccc3)c2c1` (stereo not drawn) [Compound 41, {1-Benzyl-2-hydroxy-3-[isobutyl-(3-phenethyl-3H-benzo-imidazole-5-sulfonyl)-amino]-propyl}-carbamic acid thiazol-5-ylmethyl ester] and `Cc1nc(-c2ccc(S(=O)(=O)N(CC(C)C)CC(O)C(Cc3ccccc3)NC(=O)OCc3cncs3)cc2)co1` (stereo not drawn) [Compound 44, (1-Benzyl-2-hydroxy-3-{isobutyl-[4-(2-methyl-oxazol-4-yl)-benzenesulfonyl]-amino}-propyl)-carbamic acid thiazol-5-ylmethyl ester] fall in the same range of EC50: 10 to 32 µM for the first, 10 to 32 µM for the second.

For `CC(C)CN(CC(O)C(Cc1ccccc1)NC(=O)OCc1cncs1)S(=O)(=O)c1ccc(-c2csc(Nc3ccncc3)n2)cc1` (stereo not drawn) [Compound 43, [1-Benzyl-2-hydroxy-3-(isobutyl-{4-[2-(pyridin-4-ylamino)-thiazol-4-yl]-benzenesulfonyl}-amino)-propyl]-carbamic acid thiazol-5-ylmethyl ester], the EC50 was under 2 µM.
